Experimental data: article PMC10117725, “From an Hsp90 - binding protein to a peptide drug” (microLife, 2022)
Where no end group is shown, it is not given here.

How the values were obtained:
[1] = system: total ATPase activity in HaCaT cells; experiment: Total ATPase activity in HaCaT cells; type: cell-based, human; details: Fig. S4
Staphylococcus aureus [2] = experiment: Bacterial growth kinetics; type: cell-based; details: OD578 every 1 h for 24 h, 37°C, TSB
Protocol: Staphylococcus aureus precultured in TSB overnight were inoculated to OD∼0.01 into a 48 well plate and L15 and L13 were added to study the effect of peptides on bacterial growth using Varioskan LUX Multimode Microplate Reader. With this instrument, a kinetic measurement of OD578 nm was obtained every 1 h for a total of 24 h, at 37°C with continuous shaking.

Staphylococcus aureus [3] = experiment: Hemolysin activity on sheep blood agar; type: cell-based; details: impregnated discs on sheep blood agar, 37°C overnight
Protocol: About 6 mm Whatman empty Antibiotic Assay Discs were impregnated with L15 or L13 and allowed to dry. Once dried, the discs were placed on sheep blood agar plates, inoculated with S. aureus and incubated at 37°C overnight. The halo obtained was measured and compared.

N/TERT-1 cells = experiment: Cytotoxicity in N/TERT-1 cells at tested concentration; type: cell-based, human; details: concentrations used in invasion studies (Fig. S1)
Protocol: (§1) MTT (3-(4,5-dimethylthiazol-2-yl)-2,5-diphenyl tetrazolium bromide) assay was employed to analyze the cytotoxicity of peptides and geldanamycin to the cells. 5 × 10^5 cells were seeded in a 96 flat bottom well plate and incubated for 2.5 or 24 h at 37°C with 5% CO2. The cells were then treated with increasing concentration (0 to 200 µM) of peptides or geldanamycin for 24 h. After the incubation, 10 μl of the MTT labelling reagent is added to each well to attain a final concentration 0.5 mg/ml, followed by 4 h incubation. Metabolically active cells convert the yellow tetrazolium salt to purple formazan crystals, which were solubilized using the solubilization solution (DMSO) and measured for absorbance at λmax/λref–570/690 nm (Saising et al. [2018]).

[4] = system: F-actin levels in N/TERT-1 cells; experiment: F-actin measurement (ActinGreen 488 fluorescence) in N/TERT-1 cells; type: cell-based, human; details: L15 20 µM, L13 30 µM, geldanamycin 5 µM; 1.5 h; relative to control
Protocol: (§2) About 5 × 10^4 cells were seeded in black flat bottom 96 well cell culture microplate (Greiner, Germany) and incubated overnight. The cells were then incubated with peptides or geldanamycin for 1.5 h. After incubation, the cells were washed, permeabilised with 0.1% (v/v) Triton X-100 and stained with ActinGreen™ 488 ReadyProbes® (Thermo Fischer, Germany) for 30 min. After the staining, the cells were washed and measure for its fluorescence at Excitation/Emission: 495/518 nm (Luqman et al. [2020]).

HaCaT cells = experiment: MTT cytotoxicity in HaCaT cells; type: cell-based, human; details: for toxicity to HaCaT cells at tested concentration and exposure time: concentrations used in invasion studies (Fig. S1)
Protocol: as §1

Hsp90α = biological target: T1, Hsp90α (Homo sapiens, UniProt P07900); type: binding; details: dot blot, 2 µg blotted on membrane, 20 µg recombinant Hsp90α at 4°C overnight, α-Hsp90α immunodetection
T1 construct: purchased Abcam
Protocol: Two µg of each peptide was blotted (dot blot) directly on PDV nitrocellulose membrane and blocked with ROTI®Block (Carl Roth, Germany). After washing, the membrane was then incubated with 20 μg of recombinant Hsp90α (Abcam)/Lpl1-his protein at 4°C overnight. In case of interaction studies with Hsp90α, α-Hsp90α (produced in mouse, Abcam) was used as the primary antibody and for interaction studies with Lpl1-his, Anti-6X His tag antibody (also produced in mouse, Sigma-Aldrich, Germany) was used. Alkaline phosphatase conjugated goat-α-mouse IgG (Sigma-Aldrich, Germany) served as the secondary antibody. Detection was done using BCIP®/NBT solution (Sigma, Germany). Lpl1-his was isolated and purified as described in our previous paper (Tribelli et al. [2020]).

[5] = system: phagocytosis by primary human CD14+ monocytes; experiment: Phagocytosis of S. aureus USA300 by CD14+ monocytes; type: cell-based; details: L15 20 µM, L13 30 µM, geldanamycin 5 µM, 60 min preincubation; MOI 30, 90 min; n = 4 donors; SEM
Protocol: Peripheral Blood Mononuclear cells (PBMCs) were isolated by density gradient centrifugation following the previous study (Nguyen et al. [2022]). From the pool of PBMCs, monocytes were isolated by positive selection with anti-human CD14 microbeads (Miltenyi Biotech, Bergisch-Gladbach, Germany) following a previously reported protocol (Nguyen et al. [2022]). The purity was analysed by flow cytometry on a BD Accuri C6 (BD Biosciences, Heidelberg, Germany) with anti-human CD14-FITC, CD45-PE and propidium iodide (BD Biosciences, Heidelberg, Germany) and ranged from 85% to 98%.
For the phagocytosis, 10^6 CD14^+ monocytes were seeded in 1 ml of medium (RPMI supplemented with L-Glutamine and 10% FCS) in a 12 well plate (Greiner, Germany). The cells were incubated with 20 µM of L15, 30 µM of L13, or 5 µM of Geldanamycin for 60 min at 37°C and 5% CO2 before addition of bacteria. For the phagocytosis assay, bacterial cells were resuspended in 100 µl RPMI medium at MOI of 30 and incubated with monocytes for 90 min. The cells were washed once with PBS and 0.5 ml of medium supplemented with 2.5 µg/ml of Lysostaphin was added for 90 min to remove the extracellular bacteria. Then, monocytes were washed twice with PBS and resuspended in 0.5 ml of milliQ dH2O. The cells were scraped, and the lysed solution was transferred into a new 1.5 ml Eppendorf tube for a 5 min sonication (frequency 80, power 100) at room temperature to prevent the bacterial cell clumping by using ultrasonic water bath Elmasonic P (Elma Schmidbauer Gmb, Singen, Germany). About 10 µl fractions of undiluted, 10^−1, 10^−2, and 10^−3 dilutions were inoculated on tryptic soy agar (TSA) plates and incubated overnight at 37°C. The numbers of internalized bacteria were determined based on the manual counting of bacterial colony forming units (cfu) recovered on the agar plates.

S. aureus Newman = experiment: Galleria mellonella larvae infection model, S. aureus Newman; type: in vivo; details: peptides 60 mg/kg, vancomycin 20 mg/kg, injected 1 h before 10^6 cfu; 37°C
Protocol: (§3) Galleria mellonella larvae, purchased from Feeders & more GmbH, Germany, were sorted based on weight and used within one week. Ten larvae per group with weight average of 500 mg/larvae were injected with bacteria and/or peptides on its last proleg using a BD insulin syringe. The dosage used for the experiment were 60 mg/kg for peptides, 5 mg/kg of geldanamycin and 20 mg/kg for vancomycin. Each larva was injected with 10 µl of L15 (last left proleg) 1 h before administration of 10^6 cfu S. aureus (last right proleg). The larvae were maintained at 37°C and observed for mortality every day over the course of 5 days.

[6] = system: F-actin levels in HaCaT cells; experiment: F-actin measurement (ActinGreen 488 fluorescence) in HaCaT cells; type: cell-based, human; details: 35 µg/ml peptide (L15 20 µM, L13 30 µM), geldanamycin 5 µM; 1.5 h; ActinGreen 488 fluorescence relative to control
Protocol: as §2

S. aureus USA300 = experiment: Galleria mellonella larvae infection model, S. aureus USA300; type: in vivo
Protocol: as §3

Row | Sequence | effect on total ATPase activity in HaCaT cells [1] | effect on growth of S. aureus (Staphylococcus aureus [2]) | effect on hemolysis activity of S. aureus (Staphylococcus aureus [3]) | toxicity to N/TERT-1 cells at tested concentration and exposure time (N/TERT-1 cells) | relative F-actin content in N/TERT-1 cells [4] | percentage of viable cells, HaCaT, 1 µM (HaCaT cells; MTT, 24 h, 1 µM) | percentage of viable cells, HaCaT, 200 µM (HaCaT cells; MTT, 24 h, 200 µM) | toxicity to HaCaT cells at tested concentration and exposure time (HaCaT cells) | Interaction with Hsp90α (Hsp90α) | decrease of phagocytosis of S. aureus into CD14+ monocytes [5] | larvae surviving on day 5, S. aureus Newman (S. aureus Newman) | Relative F-actin level in HaCaT [6] | larvae surviving on day 5, S. aureus USA300 (S. aureus USA300; peptides 60 mg/kg injected 1 h before 10^6 cfu, 37°C, 10 larvae per group, three biological replicates) | reduction of lethality of S. aureus in the insect model (S. aureus USA300; G. mellonella model)
1 | GHYFVTTFY [L13] | could not detect any significant inhibition | did not detect any effect on growth | nor was hemolysis activity markedly affected | neither inhibit the viability of host cells | 0.81 ± 0.03 | 103.05 ± 10.06% | 83.79 ± 11.13% | neither inhibit the viability of host cells | Yes | about 62.0 ± 6.80% | 46% | 0.87 ± 0.03 | 23% | 
2 | TAKGHYFVTTFYRNG [L15] | could not detect any significant inhibition | did not detect any effect on growth | nor was hemolysis activity markedly affected | neither inhibit the viability of host cells | 0.9 ± 0.02 |  |  | neither inhibit the viability of host cells | Yes | about 22.6 ± 7.67% | 36% | 0.83 ± 0.04 |  | about 30%
